Consider five compounds from patent US9775902B2, “Compounds and methods for treatment of stroke” (FIBROGEN, INC, priority 2006, dated 2017).

Test [1] relates to erythropoietin (EPO). Description: EPO expression in Kelly neuroblastoma cells. Particulars: for EPO: conditioned media after overnight incubation. Type of test: cell-based. In outline: (§1)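 Kelly neuroblastoma cells treated overnight with compound, 1% DMSO as negative control. EPO and VEGF secreted into conditioned media measured by QUANTIKINE immunoassay.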
Test [2] deals with erythropoietin. Description: Plasma EPO in mice after intravenous injection. The format is in vivo, Swiss Webster mice. Particulars: mouse plasma, 20 mg/kg i.v., four hours after injection; for fold induction at 20 mg/kg: iv, 4 h, read-out: EPO Fold Increase. In a few lines:
(§2)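 Male Swiss Webster mice (29-34 g) received 20 mg/kg compound or vehicle by tail-vein injection in 5% dextrose with equimolar NaOH or meglumine. Plasma was collected 4 h later, and EPO and VEGF were measured by ELISA.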

Test [3] relates to vascular endothelial growth factor (VEGF). Description: VEGF expression in Kelly neuroblastoma cells. The format is cell-based. As to conditions: for VEGF: conditioned media after overnight incubation. In a few lines:
as §1

For test [4], the system named is erythropoietin. Description: Plasma EPO in mice after oral gavage. Type of test: in vivo, Swiss Webster mice. Particulars: mouse plasma, oral gavage 6-60 mg/kg, six hours. Here is the method: (§3) In another series of experiments, male Swiss Webster mice (29-34 g) were administered various compounds of the present invention via oral gavage using a ball-tipped gavage needle. Animals treated by oral gavage received a 4-10 ml/kg volume of either 0.5% carboxymethyl cellulose with or without 0.1% Polysorbate 80 (vehicle control) or various doses (6-60 mg/kg) of a compound of the present invention in 0.5% CMC, with or without 0.1% Polysorbate 80. Blood samples were collected and tissues were processed as described above. Six hours after injection, the animals were anesthetized and exsanguinated.
(§4) Plasma samples were collected in EDTA and heparin coated microtainer tubes. Plasma samples were assayed for erythropoietin and VEGF using commercially-available ELISA kits purchased from R & D Systems (Minneapolis Minn.).

Test [5] has as its system VEGF. Description: Plasma VEGF in mice after intravenous injection. Type of test: in vivo, Swiss Webster mice. Particulars: mouse plasma, 20 mg/kg i.v., four hours after injection; for fold induction at 20 mg/kg: iv, 4 h, read-out: VEGF Fold Increase. In outline:
as §2

In test [6] the test system is VEGF. Description: Plasma VEGF in mice after oral gavage. The format is in vivo, Swiss Webster mice. As to conditions: mouse plasma, oral gavage 6-60 mg/kg, six hours. Here is the method: as §3, §4
Test [7] relates to erythropoietin (EPO). Description: EPO expression in Hep3B cells (QUANTIKINE immunoassay of conditioned media). The format is cell-based, Human. As to conditions: for EPO: conditioned media after overnight incubation with compound; for Fold Increase Over Control: EPO, vs 1% DMSO control. In a few lines: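 Confluent Hep3B cells were switched to OPTI-MEM for about 24 h (20% O2, 5% CO2, 37 °C), then treated overnight with compound or 1% DMSO vehicle. EPO secreted into the conditioned medium was measured by QUANTIKINE immunoassay.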

For test [8], the system named is C57BL/6 mice, permanent occlusion of the MCA. Description: Permanent middle cerebral artery occlusion (pMCAO) in C57BL/6 mice: infarct volume and edema. The format is in vivo. Particulars: Mus musculus, iv, 24 h, C57BL/6 mice pMCAO, 20-60 mg/kg i.v., compound given 0 hr; 24 hours after MCA occlusion; read-out: Percent Reduction in Infarct Volume. Here is the method:
The effect of compounds of the present invention on infarct volume and edema associated with stroke was examined in an animal model of ischemic stroke. In these studies, mice were subjected to permanent occlusion of the middle cerebral artery. Mice were anesthetized intraperitoneally with avertin (0.5 mg/g). Mice were then immobilized in a rodent stereotaxic frame (Kopf Instruments, Tujunga Calif.) and maintained with avertin as needed. The surgical area of the head was swabbed with 70% ethanol and a lateral incision was made between the right orbit and the right ear. […] The distal course of the middle cerebral artery (MCA) was visible through the translucent skull. A small burr-hole craniotomy was performed with a micro-drill (Fine Science Tools, Foster City Calif.). The meninges/dura was removed and the MCA was coagulated by bipolar diathermy. The muscle and soft tissue were replaced and the incision closed with vet-bond adhesive (3M, St. Paul Minn.). These studies were performed in two different mouse models of pMCAO as described below.
In one series of experiments, male C57BL/6 mice (25-35 g) were subjected to permanent occlusion of the MCA as described above. Compounds of the present invention were administered by intravenous injection at various times before or after MCA occlusion (see Table 7). Animals administered compound by intravenous injection received a 6 ml/kg volume of either 5% Dextrose with an equimolar amount of Meglumine (vehicle control) or 20-60 mg/kg of a compound of the present invention in 5% dextrose with an equimolar amount of Meglumine. Body temperature of the animals was maintained by use of a heating pad both during and after surgery. Twenty-four hours after MCA occlusion animals were euthanized with CO2 and their brains removed. After removal, the brain was sliced in 7 coronal sections, each 1 mm thick. The sections were placed rostral side down in a petri dish and stained with 1% Triphenyl tetrazolium chloride for 20 minutes at 37° C. for determination of infarct volume. Brain sections were then digitally photographed and analyzed for changes in infarct volume and extent of edema. Infarct volumes were determined by measuring the infarcted (i.e., non-stained) areas of each brain section and multiplying this value by the section thickness. Extent of edema was determined by the net increase in volume of the ipsilateral cortex compared to that of the contralateral cortex of brain sections.
The effect of compounds of the present invention administered at various times following the onset of stroke was examined further as follows. In these studies, changes in infarct volume were measured using an animal model of stroke when compounds of the present invention were administered from 0 to 8 hours following permanent MCA occlusion. In one series of experiments, male C57BL/6 mice (25-35 g) were subjected to permanent occlusion of the MCA as described above. Compound F was administered to the animals by a single intravenous bolus injection at various times up to 5 hours after MCA occlusion (see Table 8 below). Animals administered compound by intravenous injection received a 6 ml/kg volume of either 5% Dextrose with an equimolar amount of NaOH (vehicle control) or 60 mg/kg of Compound F in 5% dextrose with an equimolar amount of NaOH. Body temperature of the animals was maintained by use of a heating pad both during and after surgery. Changes in infarct volumes were determined as described above.
In another set of experiments, male C57BL/6 mice (25-35 g) were subjected to permanent occlusion of the MCA as described above. Compound F was administered by single intravenous bolus injection at various times up to 8 hours after MCA occlusion (see Table 9 below). Animals administered compound by intravenous injection received a 6 ml/kg volume of either 5% Dextrose with an equimolar amount of Meglumine (vehicle control) or 60 mg/kg of Compound F in 5% dextrose with an equimolar amount of Meglumine. […]

With `CC(NC(=O)c1ncc2cc(Oc3ccccc3)ccc2c1O)C(=O)O` (centres unmarked) [Compound I, 2-[(4-Hydroxy-7-phenoxy-isoquinoline-3-carbonyl)-amino]-propionic acid], the figures for the “EPO Fold Increase” value in the test on erythropoietin (EPO) [1] and in the test with erythropoietin [4] were 3.4 and 16.46, respectively. The EPO in the test with erythropoietin (EPO) [1] came to 14.8 mIU/ml; in the test on erythropoietin [2] (human EPO ELISA kit (*)) it was 62.1 mIU/ml; with erythropoietin [4] (human EPO ELISA kit (*)) it was 21.4 mIU/ml; in the test with erythropoietin (EPO) [7], 41.0 mIU/ml. Besides, the fold induction at 20 mg/kg in the test on erythropoietin [2] was determined as 155; with VEGF [5], 2.13. The “VEGF Fold Increase” value in test [3] is reported as 7.2; in the test with VEGF [6], 2.71. Besides, the VEGF amounted to 2370.0 pg/mL in test [3], 77.8 pg/mL in the test on VEGF [5] and 62.7 pg/mL in the test on VEGF [6].

Take `C#Cc1nc(C(=O)NCC(=O)O)c(O)c2ccsc12` [Compound M, [(7-Ethynyl-4-hydroxy-thieno[2,3-c]pyridine-5-carbonyl)-amino]-acetic acid]: the “EPO Fold Increase” value in the test with erythropoietin (EPO) [1] was 285; in the test on erythropoietin [4], 1.26. For the same compound, the EPO in the test with erythropoietin (EPO) [1] is 57 mIU/ml; in the test with erythropoietin [2] (mouse EPO ELISA kit (**)) it was 161.6 pg/mL; in the test on erythropoietin [4] (mouse EPO ELISA kit (**)) it was 8.8 pg/mL; with erythropoietin (EPO) [7], 64.1 mIU/ml. Moreover, the fold induction at 20 mg/kg in the test on erythropoietin [2] was found to be 180; with VEGF [5] it was 1.31. The “VEGF Fold Increase” value was found to be 2.0 in test [3] and 1.23 in the test with VEGF [6]. In addition, the VEGF in test [3] amounted to 1436 pg/mL; with VEGF [5] it was 38 pg/mL; in the test with VEGF [6] it was 38 pg/mL. Besides, the “Fold Increase Over Control” value in the test with erythropoietin (EPO) [7] was 11.6.

Take `Cc1nc(C(=O)NCC(=O)O)c(O)c2cc(-c3ccc(F)cc3)sc12` [Compound P, {[2-(4-Fluoro-phenyl)-4-hydroxy-7-methyl-thieno[2,3-c]pyridine-5-carbonyl]-amino}-acetic acid]: in the test with erythropoietin (EPO) [1], the “EPO Fold Increase” value was determined as 13.90. Further, the EPO in the test with erythropoietin (EPO) [1] was 262.8 mIU/ml; in the test with erythropoietin [2] (mouse EPO ELISA kit (**)), 62.3 pg/mL; in the test with erythropoietin (EPO) [7] it was 54.9 mIU/ml. The fold induction at 20 mg/kg in the test on erythropoietin [2] is 5.88; in the test on VEGF [5] it was 1.15. Moreover, in test [3], the “VEGF Fold Increase” value was 5.1. The VEGF in test [3] came to 7453 pg/mL; with VEGF [5] it was 45 pg/mL. In test [8], the inhibition in vivo at up to 20 mg/kg came out at 37%. Further, in the test on erythropoietin (EPO) [7], the “Fold Increase Over Control” value is listed as 7.2.

On to `N#Cc1nc(C(=O)NCC(=O)O)c(O)c2ccc(Oc3ccc(F)cc3)cc12` [Compound R, {[1-Cyano-7-(4-fluoro-phenoxy)-4-hydroxy-isoquinoline-3-carbonyl]-amino}-acetic acid], for which, in the test with erythropoietin (EPO) [1], the “EPO Fold Increase” value came out at 19.71 and the EPO worked out at 372.6 mIU/ml. Also, the fold induction at 20 mg/kg in the test with erythropoietin [2] came to 52.4. In the test with erythropoietin [2] (mouse EPO ELISA kit (**)), the EPO was found to be 555.5 pg/mL. Besides, in test [3], the “VEGF Fold Increase” value came to 7.4 and the VEGF worked out at 2735 pg/mL. For the same compound, in the test with VEGF [5], the fold induction at 20 mg/kg worked out at 1.38 and the VEGF was 54 pg/mL. Further, the inhibition in vivo at up to 20 mg/kg in test [8] is 32%. In addition, in the test on erythropoietin (EPO) [7], the “Fold Increase Over Control” value was found to be 25.3 and the EPO is 49.1 mIU/ml.

Take `CC(NC(=O)c1ncc2cc(Sc3ccccc3)ccc2c1O)C(=O)O` (centres unmarked) [Compound Y, 2-[(4-Hydroxy-7-phenylsulfanyl-isoquinoline-3-carbonyl)-amino]-propionic acid]: the “EPO Fold Increase” value with erythropoietin [4] was 8.85. This compound returned an EPO in the test with erythropoietin [4] (human EPO ELISA kit (*)) of 11.5 mIU/ml. In addition, in the test on VEGF [6], the VEGF turned out to be 52.7 pg/mL and the “VEGF Fold Increase” value is given as 2.28.
